Source: ChEMBL document CHEMBL1201862, “PubChem BioAssay data set” (2004)
Several values for one entry are separate records, joined by “and”; a condition that tells them apart may be missing. Equal entries are not always repeated.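 These data come from cells grown in 96-well plates and exposed to compound for 48 hours at five concentrations. GI50 marks 50% less growth.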 Activity calls are given as the source filed them. Cut-off read from the data, not from the text of the source: active = GI50 up to about 1.1 µM and inactive = higher.

What was measured:
Experiment in all cases: NCI anticancer screen, dose series, 48 h
BT-549 = test system: BT-549
U-251 = test system: U-251
SK-MEL-5 = test system: SK-MEL-5
MDA-N = test system: MDA-N
SF-539 = test system: SF-539
SF-268 = test system: SF-268
PC-3 = test system: PC-3
T47D = test system: T47D
EKVX = test system: EKVX
COLO 205 = test system: COLO 205
HOP-92 = test system: HOP-92
IGROV-1 = test system: IGROV-1
MDA-MB-435 = test system: MDA-MB-435
OVCAR-3 = test system: OVCAR-3
SK-MEL-28 = test system: SK-MEL-28
KM12 = test system: KM12
RPMI-8226 = test system: RPMI-8226
UACC-257 = test system: UACC-257
HT-29 = test system: HT-29
OVCAR-4 = test system: OVCAR-4
NCI-H226 = test system: NCI-H226
TK-10 = test system: TK-10
DU-145 = test system: DU-145
SW-620 = test system: SW-620
MDA-MB-231 = test system: MDA-MB-231
OVCAR-5 = test system: OVCAR-5
SK-MEL-2 = test system: SK-MEL-2
RXF 393 = test system: RXF 393
HCT-15 = test system: HCT-15
Hs-578T = test system: Hs-578T
HCC 2998 = test system: HCC 2998
HOP-62 = test system: HOP-62
SN12C = test system: SN12C
Malme-3M = test system: Malme-3M
HCT-116 = test system: HCT-116
A549 = test system: A549
SK-OV-3 = test system: SK-OV-3
NCI-H23 = test system: NCI-H23
SF-295 = test system: SF-295
786-0 = test system: 786-0
MOLT-4 = test system: MOLT-4
UO-31 = test system: UO-31
K562 = test system: K562
SNB-19 = test system: SNB-19
SNB-75 = test system: SNB-75
NCI-H522 = test system: NCI-H522
M14 = test system: M14
NCI-H460 = test system: NCI-H460
UACC-62 = test system: UACC-62
SR = test system: SR
LOX IMVI = test system: LOX IMVI
CAKI-1 = test system: CAKI-1
CCRF-CEM = test system: CCRF-CEM
ACHN = test system: ACHN

Measured: GI50

CCCCCCCCCCCCCCCCOP(=O)(O)OP(=O)(O)OCC1OC(n2ccc(N)nc2=O)C(O)C1O (configuration not stated)
inactive: BT-549 > 93.3 µM | U-251 > 100 µM and > 76.7 µM | SK-MEL-5 > 100 µM and 53 µM | MDA-N > 100 µM | SF-539 > 91 µM | SF-268 > 100 µM | PC-3 54.6 µM | T47D > 74 µM | EKVX > 100 µM | COLO 205 > 100 µM | HOP-92 > 100 µM and 57.1 µM | IGROV-1 > 100 µM and > 89.7 µM | MDA-MB-435 > 100 µM | OVCAR-3 > 100 µM | SK-MEL-28 > 100 µM | KM12 > 100 µM | RPMI-8226 > 100 µM | UACC-257 > 100 µM and > 96.6 µM | HT-29 51.3 µM | OVCAR-4 > 100 µM | NCI-H226 89.3 µM | TK-10 > 100 µM | DU-145 > 100 µM and 58.2 µM | SW-620 > 100 µM and > 95.7 µM | MDA-MB-231 > 76.2 µM | OVCAR-5 > 100 µM and > 61.9 µM | SK-MEL-2 > 100 µM | RXF 393 58.2 µM | Hs-578T > 91.6 µM
> 100 µM and 98.2 µM: HCT-15

O=C(N/N=C(\c1ccccc1)c1ccccn1)NC1CCCCC1
22.9 µM: HCT-15
inactive: BT-549 42.4 µM | U-251 51.1 µM | HCC 2998 56.4 µM | SK-MEL-5 40.1 µM | HOP-62 23.4 µM | SN12C 56.5 µM | MDA-N > 100 µM | Malme-3M 38.6 µM | SF-268 37.2 µM | PC-3 56.2 µM | HCT-116 55.6 µM | T47D 28.6 µM | EKVX 41.8 µM | COLO 205 65 µM | HOP-92 61.8 µM | IGROV-1 30.6 µM | MDA-MB-435 > 100 µM | A549 46.8 µM | OVCAR-3 39.6 µM | SK-MEL-28 > 100 µM | SK-OV-3 45.5 µM | NCI-H23 47.9 µM | SF-295 26.6 µM | 786-0 63.5 µM | MOLT-4 41.1 µM | UO-31 43.5 µM | KM12 59.3 µM | K562 5.46 µM | SNB-19 > 100 µM | RPMI-8226 48.1 µM | SNB-75 > 100 µM | UACC-257 > 100 µM | HT-29 59.2 µM | NCI-H522 47.4 µM | M14 30 µM | NCI-H460 48 µM | OVCAR-4 22.7 µM | NCI-H226 41.1 µM | TK-10 26.9 µM | UACC-62 38.2 µM | SR 72.6 µM | LOX IMVI 19.4 µM | DU-145 64.6 µM | SW-620 76 µM | MDA-MB-231 27.7 µM | CAKI-1 57 µM | OVCAR-5 > 100 µM | CCRF-CEM 40.8 µM | SK-MEL-2 82.4 µM | ACHN 44.6 µM | Hs-578T > 100 µM
